Test results reported in US8871818B2, “Gastrointestinal absorption enhancer mediated by proton-coupled transporter and its preparing method” (Otsuka Pharmaceutical Co., Ltd., priority 2003, dated 2014).

What was measured:
rat ileum = experiment: Absorption in rat intestinal loop, in situ closed loop method; format: in vivo; conditions: 20 minutes, CDX 1 mM or CFIX 0.5 mM in MES buffer pH 6.0
Description: For example, rats are anesthetized by intraperitoneally administering pentobarbital sodium (50 mg/kg). Then, laparotomy is performed along the median line to expose the intestinal tract, and a loop is formed at the ileum (e.g., FIG. 6). MES buffer containing medical fluid and a polymer (5 mM KCl, 100 mM NaCl, 10 mM 2-(N-morpholino)ethanesulfonic acid (MES), 85 mM mannitol, 0.01% polyethylene glycol; pH 6.0; osmotic pressure 290 mOs/kg) is introduced into the intestinal loop and both ends of the loop are ligated. Subsequently, the intestinal loop is immediately returned to the abdominal cavity. An incandescent lamp is used to maintain the body temperature. The solution inside the intestinal loop is retrieved 20 minutes after its administration. The pH was measured by pH-meter. The amount of medicaments are measured by HPLC.
The oral composition of the invention was prepared by adding a β-lactam antibiotic (CDX or CFIX) to 10 mM MES buffer (pH 6.0) such that the buffer contained CDX in an amount of 1 mM or CFIX in an amount of 0.5 mM, and further adding Eudragit L100-55 to the buffer so that it contained in a proportion of 10 or 20 wt. % based on the amount of the entire oral composition. A β-lactam antibiotic solution containing no Eudragit L100-55 was prepared as a control.
These compositions were administered into the intestinal loops prepared at the caecum junction of SD male rats (junction between the terminal of the ileum and where the caecum starts) to a distance of 14 cm toward the stomach. The solution remaining in the intestinal loops was retrieved 20 minutes after administration. The concentration of β-lactam antibiotic in the retrieved solution was measured by HPLC, and pH of the retrieved solution was measured using a pH meter. Absorbability was evaluated according to the decrease in the concentration of β-lactam antibiotic in the retrieved solution in comparison with the concentration thereof in the solution administered.

Caco-2 cells = experiment: Cellular uptake into Caco-2 cells under various pH conditions (pH profile); format: in vitro ADME, human; conditions: 2 mM, uptake over 15 minutes
Description: To investigate the effect of extracellular fluid on the cellular uptake of dipeptides and β-lactam antibiotics transported by PEPT1, the cellular uptake of dipeptides, i.e., [^14C]glycylsarcosine ([^14C]GlySar) and [^3H]carnosine, and β-lactam antibiotics, i.e., cefadroxil (CDX), cefixime (CFIX), and FK089, was evaluated at pH 5.0 to 7.0 using gastrointestinal tract model cells (Caco-2 cells).
Cells cultured on 4-well plates were rinsed 3 times with 1 mL Hanks' balanced salt solution (HBSS: 0.952 mM CaCl2, 5.36 mM KCl, 0.441 mM KH2PO4, 0.812 mM MgSO4, 136.7 mM NaCl, 0.385 mM Na2HPO4, 25 mM D-glucose, 10 mM HEPES; pH 7.4; osmotic pressure 315 mOs/kg) heated to 37° C., and uptake was initiated by adding 250 μL HBSS containing medical fluid. Uptake was terminated at a predetermined period of time by washing the cells 3 times with 1 mL ice-cooled HBSS. […] The medicaments contained in the solution extracted from the cells were quantified by a liquid scintillation counter or liquid chromatography (HPLC). Proteins contained in the cells were quantified using a protein assay kit (Bio-Rad, Richmond, Calif., USA) according to the Bradford assay (Bradford, M. M. “A Rapid and Sensitive Method for the Quantitation of Microgram Quantities of Protein Utilizing the Principle of Protein-Dye Binding”. Anal. Biochem. 72 (1976): 248-254). […]

[1] = Plasma concentration of CFIX after oral administration to rats with polymer and/or CDX; format: in vivo; conditions: male, SD, rat, CFIX 2.3 mg/kg, polymer 500 mg/kg
Description: To investigate whether absorption of orally-administered peptidergic compounds in rats is improved by controlling gastrointestinal pH using pH-sensitive polymers, the time course of the plasma concentration of CFIX was examined after orally administering the peptidergic compound CFIX in combination with a pH-sensitive polymer (Eudragit L100-55) or pH-insensitive polymer (Eudragit RS PO).
The oral composition of the invention was prepared by adding Eudragit L100-55 to an aqueous solution of CFIX (0.23 mg/mL) such that the solution contained Eudragit L100-55 in a proportion of 5 wt. % based on the amount of the entire oral composition. A CFIX solution containing no Eudragit L100-55 was prepared as a control. These compositions were orally administered to SD male rats (body weight: 190 to 220 g) fasted for an entire day and night such that CFIX was given in a dose of 2.3 mg/kg. Blood was collected 15 to 480 minutes after administration, and the plasma concentration of CFIX was measured by HPLC. Based on the plasma concentration profile of CFIX thus obtained, the area under the plasma drug concentration-time curve (AUC) and highest drug concentration observed in plasma following administration of an extravascular dose (Cmax) were obtained.
Plots (◯) represent absorption of CFIX in the absence of a polymer, plots (●) represent absorption of CFIX in the presence of Eudragit L100-55 (500 mg/kg), and plots (□) represent absorption of CFIX in the presence of Eudragit RS PO (500 mg/kg). Each plot represents the mean±standard error of 5 experiments.
The experimental procedure was as described in Example 4 except that CDX was simultaneously administered.
FIG. 5 depicts the influence of CDX on the oral administration profile of CFIX after administering the composition (CFIX: 2.3 mg/kg) to rats. Plots (●) represent absorption of CFIX when Eudragit L100-55 (500 mg/kg) and 0 mM CDX were used, plots (▴) represent absorption of CFIX when Eudragit L100-55 (500 mg/kg) and 2 mM CDX were used, and plots (▪) represent absorption of CFIX when Eudragit L100-55 (500 mg/kg) and 10 mM CDX were used. […]

absorption from rat intestinal loop (rat ileum; no Eudragit L100-55) | absorption from rat intestinal loop (rat ileum; with Eudragit L100-55 20 wt. %) | cellular uptake when pH of extracellular fluid is decreased from 6.0 to 5.0 (Caco-2 cells; Caco-2 cells) | Cmax [1] | Tmax [1] | AUC(0-t) ([1]; read-out: AUC0-8h of CFIX) | pH of optimum uptake into Caco-2 cells (Caco-2 cells; pH 5.0 to 7.0) | Structure (SMILES)
hardly absorbed | about 35% | greatly enhanced | 4130 ± 500 ng/mL | 43.2 ± 12 min | 10800 ± 1480 ng·h/mL |  | C=CC1=C(C(=O)O)N2C(=O)[C@@H](NC(=O)/C(=N\OCC(=O)O)c3csc(N)n3)[C@H]2SC1 [CFIX, cefixime]
about 40% | about 80% |  |  |  |  | 6.0 | CC1=C(C(=O)O)N2C(=O)[C@@H](NC(=O)[C@H](N)c3ccc(O)cc3)[C@H]2SC1 [CDX, cefadroxil]
